Assay results published in patent publication US10117864B2, “Substituted N-bicyclo-2-aryl-quinolin-4-carboxamides and use thereof” (BAYER PHARMA AKTIENGESELLSCHAFT, priority 2015, dated 2018).

molecular target: human FP receptor (Homo sapiens (Human), UniProt P43088); assay: In vitro test of inhibition of human FP receptor activity (PGF2α-induced calcium flux in FP-expressing CHEM1 cells); type: cell-based; settings: PGF2α-induced (3 nM) calcium flux, some as mean values from multiple independent determinations
Excerpt: • CRTH2 chemoattractant receptor-homologous molecule expressed on T helper type 2 cells • DMEM Dulbecco's modified Eagle's medium • DMSO dimethyl sulfoxide • DP PGD2 receptor • EC50 half-maximum effective concentration • Em emission • EP PGE2 receptor • Ex excitation • from Company (source) • FCS fetal calf serum • FP PGF2α receptor • HEPES 2-[4-(2-hydroxyethyl)piperazin-1-yl]ethanesulfonic acid • IC50 half-maximum inhibitory concentration • IP PGI2 receptor • MES 2-(N-morpholino)ethanesulfonic acid • Pen/Strep penicillin/streptomycin • PGD2 prostaglandin D2 • PGE2 prostaglandin E2 • PGF2α prostaglandin F2α • PGI2 prostaglandin I2 • TC tissue culture • TP thromboxane A2 receptor • Tris tris(hydroxymethyl)aminomethane • v/v volume to volume ratio (of a solution) • w/w weight to weight ratio (of a solution) B-1. In Vitro Test of Inhibition of Human FP Receptor Activity
For the characterization of test substances in respect of FP antagonism, PGF2α-induced calcium flux in FP-expressing CHEM1 cells (Millipore, HTS093C) was used.
Prior to the measurement, the medium is replaced by 30 μl of Fluo-8 AM loading buffer [calcium-free Tyrode (130 mM NaCl, 5 mM KCl, 20 mM HEPES, 1 mM MgCl2, 4.8 mM NaHCO3, pH 7.4), 2 mM CaCl2, 1× SmartBlock (from CANDOR Bioscience GmbH), 4.5 mM Probenecid, 5 μM Fluo-8 AM, 0.016% Pluronic®, 0.04% Brilliant black] and incubated at 37° C./5% CO2 for 30 minutes. […] 10 μl of the prediluted substance solution are added to the Fluo-8-laden cells and incubated at 37° C./5% CO2 for 10 minutes. The FP receptor is activated by adding 20 μl of 3 nM (final concentration) PGF2α in calcium-free Tyrode/2 mM CaCl2/0.04% Brilliant black, and the calcium flux is determined by measuring the fluorescence at ex. 470 nm/[…].
Table 1 below lists the IC50 values from this assay for individual working examples of the invention (some as mean values from multiple independent individual determinations): […]

Sequence of human FP receptor (P43088 whole entry): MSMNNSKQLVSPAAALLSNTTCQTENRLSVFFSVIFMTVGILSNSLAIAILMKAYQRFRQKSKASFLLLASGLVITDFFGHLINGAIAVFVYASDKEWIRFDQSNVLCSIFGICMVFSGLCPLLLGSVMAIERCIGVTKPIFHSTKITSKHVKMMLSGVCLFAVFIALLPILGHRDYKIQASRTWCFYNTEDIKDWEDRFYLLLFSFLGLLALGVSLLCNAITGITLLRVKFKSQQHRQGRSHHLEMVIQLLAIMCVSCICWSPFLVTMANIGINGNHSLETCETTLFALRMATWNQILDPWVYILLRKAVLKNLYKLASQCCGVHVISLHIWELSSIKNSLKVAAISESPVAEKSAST

| Molecule | IC50 [nM] |
| --- | --- |
| Cc1c(-c2c(F)cccc2F)nc2ccc(Br)cc2c1C(=O)NC12CCC(C(=O)O)(CC1)CC2 [Example 25, 4-({[6-Bromo-2-(2,6-difluorophenyl)-3-methylquinolin-4-yl]carbonyl}amino)bicyclo[2.2.2]octane-1-carboxylic acid] | 494 |
| C#Cc1ccc2nc(-c3ccccc3)c(C)c(C(=O)NC34CCC(C(=O)O)(CC3)CC4)c2c1 [Example 56, 4-{[(6-Ethynyl-3-methyl-2-phenylquinolin-4-yl)carbonyl]amino}bicyclo[2.2.2]octane-1-carboxylic acid] | 148 |
| Cc1c(-c2cccc(F)c2)nc2ccc(Br)cc2c1C(=O)NC12CCC(C(=O)O)(CC1)CC2 [Example 7, 4-({[6-Bromo-2-(3-fluorophenyl)-3-methylquinolin-4-yl]carbonyl}amino)bicyclo[2.2.2]octane-1-carboxylic acid] | 181 |
| Cc1c(-c2ccccc2)nc2c(C)cc(Br)cc2c1C(=O)NC12CCC(C(=O)O)(CC1)CC2 [Example 21, 4-{[(6-Bromo-3,8-dimethyl-2-phenylquinolin-4-yl)carbonyl]amino}bicyclo[2.2.2]octane-1-carboxylic acid] | 214 |
| Cc1c(-c2ccccc2)nc2ccc(Br)cc2c1C(=O)N[C@@H]1[C@@H]2CC[C@H]1C[C@H](C(=O)O)C2 [Example 65, (3-exo,8-anti)-8-{[(6-Bromo-3-methyl-2-phenylquinolin-4-yl)carbonyl]amino}bicyclo[3.2.1]octane-3-carboxylic acid] | 824 |
| COc1c(-c2ccccc2)nc2ccc(Br)cc2c1C(=O)NC12CCC(C(=O)O)(CC1)CC2 [Example 13, 4-{[(6-Bromo-3-methoxy-2-phenylquinolin-4-yl)carbonyl]amino}bicyclo [2.2.2]octane-1-carboxylic acid] | 153 |
| Cc1c(-c2cccs2)nc2ccc(Br)cc2c1C(=O)NC12CCC(C(=O)O)(CC1)CC2 [Example 5, 4-({[6-Bromo-3-methyl-2-(2-thienyl)quinolin-4-yl]carbonyl}amino)bicyclo[2.2.2]octane-1-carboxylic acid] | 113 |
| Cc1c(-c2ccccc2)nc2ccc(Br)cc2c1C(=O)NC12CCC(C(=O)O)(CC1)C(=O)C2 [Example 57, 4-{[(6-Bromo-3-methyl-2-phenylquinolin-4-yl)carbonyl]amino}-2-oxobicyclo[2.2.2]octane-1-carboxylic acid] | 637 |
| Cc1c(-c2ccccc2)nc2ccc(Br)cc2c1C(=O)NC12CCC(C(=O)O)(CC1=O)CC2=O [Example 63, 4-{[(6-Bromo-3-methyl-2-phenylquinolin-4-yl)carbonyl]amino}-3,5-dioxobicyclo [2.2.2]octane-1-carboxylic acid] | 82 |
| COc1cccc(-c2nc3ccc(Br)cc3c(C(=O)NC34CCC(C(=O)O)(CC3)CC4)c2C)c1 [Example 26, 4-({[6-Bromo-2-(3-methoxyphenyl)-3-methylquinolin-4-yl]carbonyl}amino)bicyclo[2.2.2]octane-1-carboxylic acid] | 114 |
| Cc1c(-c2ccccc2F)nc2ccc(Br)cc2c1C(=O)NC12CCC(C(=O)O)(CC1)CC2 [Example 6, 4-({[6-Bromo-2-(2-fluorophenyl)-3-methylquinolin-4-yl]carbonyl}amino)bicyclo[2.2.2]octane-1-carboxylic acid] | 240 |
| O=C(NC12CCC(C(=O)O)(CC1)CC2)c1c(C2CC2)c(-c2ccccc2)nc2ccc(Br)cc12 [Example 29, 4-{[(6-Bromo-3-cyclopropyl-2-phenylquinolin-4-yl)carbonyl]amino}bicyclo[2.2.2]octane-1-carboxylic acid] | 51 |
| O=C(NC12CCCC(C(=O)O)(CC1)CC2)c1c(C2CC2)c(-c2ccccc2)nc2ccc(I)cc12 [Example 42, 5-{[(3-Cyclopropyl-6-iodo-2-phenylquinolin-4-yl)carbonyl]amino}bicyclo[3.2.2]nonane-1-carboxylic acid] | 33 |
| Cc1c(-c2ccccc2)nc2c(Cl)cc(Cl)cc2c1C(=O)NC12CCC(C(=O)O)(CC1)CC2 [Example 22, 4-{[(6,8-Dichloro-3-methyl-2-phenylquinolin-4-yl)carbonyl]amino}bicyclo[2.2.2]octane-1-carboxylic acid] | 677 |
| O=C(NC12CCC(C(=O)O)(CC1)CC2)c1c(F)c(-c2ccccc2)nc2ccc(Br)cc12 [Example 12, 4-{[(6-Bromo-3-fluoro-2-phenylquinolin-4-yl)carbonyl]amino}bicyclo[2.2.2]octane-1-carboxylic acid] | 139 |
| Cc1c(-c2ccccc2)nc2ccc(I)cc2c1C(=O)NC12CCC(C(=O)O)(CC1)OC2 [Example 64, 4-{[(6-Iodo-3-methyl-2-phenylquinolin-4-yl)carbonyl]amino}-2-oxabicyclo [2.2.2]octane-1-carboxylic acid] | 762 |
| Cc1c(-c2ccccc2Cl)nc2ccc(Br)cc2c1C(=O)NC12CCC(C(=O)O)(CC1)CC2 [Example 10, 4-({[6-Bromo-2-(2-chlorophenyl)-3-methylquinolin-4-yl]carbonyl}amino)bicyclo[2.2.2]octane-1-carboxylic acid] | 128 |
| CSc1c(-c2ccccc2)nc2ccc(Br)cc2c1C(=O)NC12CCC(C(=O)O)(CC1)CC2 [Example 27, 4-({[6-Bromo-3-(methylsulfanyl)-2-phenylquinolin-4-yl]carbonyl}amino)bicyclo[2.2.2]octane-1-carboxylic acid] | 74 |
| Cc1c(-c2ccccc2)nc2ccc(Br)cc2c1C(=O)NC12CCC(C(=O)O)(CC1)C(F)(F)C2 [Example 58, 4-{[(6-Bromo-3-methyl-2-phenylquinolin-4-yl)carbonyl]amino}-2,2-difluorobicyclo[2.2.2]octane-1-carboxylic acid] | 668 |
| Cc1cc2nc(-c3ccccc3)c(C)c(C(=O)NC34CCC(C(=O)O)(CC3)CC4)c2cc1C [Example 23] | 306 |
| Cc1c(-c2ccc(Cl)s2)nc2ccc(Br)cc2c1C(=O)NC12CCC(C(=O)O)(CC1)CC2 [Example 54, 4-({[6-Bromo-2-(5-chloro-2-thienyl)-3-methylquinolin-4-yl]carbonyl}amino)bicyclo[2.2.2]octane-1-carboxylic acid] | 240 |
| Cc1c(-c2ccccc2)nc2ccc(C(F)F)cc2c1C(=O)NC12CCC(C(=O)O)(CC1)CC2 [Example 18, 4-({[6-(Difluoromethyl)-3-methyl-2-phenylquinolin-4-yl]carbonyl}amino)bicyclo[2.2.2]octane-1-carboxylic acid] | 543 |
| Cc1c(-c2ccccc2)nc2ccc(Br)cc2c1C(=O)NC12CCCC(C(=O)O)(CC1)CC2 [Example 39, 5-{[(6-Bromo-3-methyl-2-phenylquinolin-4-yl)carbonyl]amino}bicyclo[3.2.2]nonane-1-carboxylic acid] | 230 |
| CCCc1c(-c2ccccc2)nc2ccc(Br)cc2c1C(=O)NC12CCC(C(=O)O)(CC1)CC2 [Example 31, 4-{[(6-Bromo-2-phenyl-3-propylquinolin-4-yl)carbonyl]amino}bicyclo[2.2.2]octane-1-carboxylic acid] | 351 |
| O=C(NC12CCC(C(=O)O)(CC1)CC2)c1c(Cl)c(-c2ccccc2)nc2ccc(Br)cc12 [Example 30, 4-{[(6-Bromo-3-chloro-2-phenylquinolin-4-yl)carbonyl]amino}bicyclo[2.2.2]octane-1-carboxylic acid] | 52 |
| O=C(NC12CCCC(C(=O)O)(CC1)CC2)c1c(Cl)c(-c2ccccc2)nc2ccc(I)cc12 [Example 41, 5-{[(3-Chloro-6-iodo-2-phenylquinolin-4-yl)carbonyl]amino}bicyclo[3.2.2]nonane-1-carboxylic acid] | 48 |

system: not given; assay: not given; settings: unstable molecule, rearranged enzymatically in lung, liver and kidney to 15-ketodihydro-PGF2α; cited from earlier work

| Molecule | t1/2 [min] |
| --- | --- |
| Prostaglandin F2alpha [PGF2α] | < 1 |

system: not given; assay: not given; settings: eliminated renally; cited from earlier work

| Molecule | half-life |
| --- | --- |
| Bleomycin | about 3 hours |
